Measured values published in patent publication US5187187A, “Irreversible ligands for nonsteroidal antiinflammatory drug and prostaglandin binding sites” (Trustees of the University of Pennsylvania, priority 1991, dated 1993).

Assays:
3α-HSD [1] = biological target: T1, 3α-HSD (Rattus norvegicus, UniProt P23457); assay: Competitive inhibition of androsterone oxidation catalyzed by 3α-HSD, initial velocity conditions, method of Dixon; type: biochemical; conditions: inhibition constants under initial velocity conditions, NADH formation at 340 nm, pH 7.0
T1 construct: The homogeneous 3α-HSD of rat liver cytosol; from tissue; host or cells: rat liver cytosol
T1 sequence (P23457 1-322): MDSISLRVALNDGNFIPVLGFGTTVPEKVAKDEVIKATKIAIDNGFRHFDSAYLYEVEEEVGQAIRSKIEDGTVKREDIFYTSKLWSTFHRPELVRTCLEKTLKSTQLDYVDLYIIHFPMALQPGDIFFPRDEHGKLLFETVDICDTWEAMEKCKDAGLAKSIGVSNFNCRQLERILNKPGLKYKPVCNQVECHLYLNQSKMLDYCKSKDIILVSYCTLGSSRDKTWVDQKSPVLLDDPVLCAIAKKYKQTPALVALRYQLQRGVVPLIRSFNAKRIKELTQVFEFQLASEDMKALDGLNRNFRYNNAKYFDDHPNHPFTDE
Method: Initial rates were determined spectrophotometrically by measuring the rate of NADH formation at 340 nM over 5 minutes in an assay containing 2.3 mM AND^+ in 0.1 M potassium phosphate buffer pH 7.0, with 4% acetonitrile (v/v) as a cosolvent in a 1 ml system. The assay was started by the addition of enzyme. […] From the slope of this plot, the Ki was determined.

3α-HSD [2] = biological target: T1, 3α-HSD; assay: Time and concentration dependent inactivation of 3α-HSD, method of Kitz and Wilson; type: biochemical; conditions: for t1/2 life for the enzyme at saturating inactivator concentrations: Kitz and Wilson analysis; for Return of activity of inactivated enzyme by extensive dialysis: after inactivation; for Loss of 3α-HSD activity (inactivation): incubation of enzyme with inactivator; for KI (inactivation): independent determination from time dependent inactivation, 1/kapp vs 1/[Inhibitor], pH 7.0, read-out: Ki (Kitz and Wilson analysis of inactivation)
Method: The difference in the Ki 's determined from the two methods can probably be attributed to the difference in the binding order in the enzymatic mechanism.
Inactivation of […] (15 μM) was conducted in incubations (50 μl) of 10 mM potassium phosphate buffer pH 7.0 containing 1 mM EDTA and 4% acetonitrile as a cosolvent. Enzyme activity was followed over time by diluting an aliquot of the incubation mixture in a 1 ml assay containing 2.3 mM […] and 75 μM androsterone in 0.1 M potassium phosphate buffer, pH 7.0 containing 1 mM mercaptoethanol, with 4% acetonitrile as a cosolvent. Initial rates were determined as described in FIG. 1. Because of the 100 fold or greater dilution of the enzyme into the assay, the initial rate measured is an indication of the enzyme activity remaining at that time. Initial rates of inactivation (kapp 's) were determined from semilogarithmic plots of percent enzyme activity remaining versus time. Data was replotted (FIG. 2b) as 1 /kapp vs 1/[Inhibitor] from which kinact (the rate constant for enzyme inactivation) and Ki (the binding constant for compound (VII)) were determined.

[3] = in vivo; cited from earlier work

| Ki (3α-HSD [1]) [µM] | t1/2 life for the enzyme at saturating inactivator concentrations (3α-HSD [2]) [s] | Return of activity of inactivated enzyme by extensive dialysis (3α-HSD [2]) | KI (inactivation) (3α-HSD [2]) [µM] | SMILES | Loss of 3α-HSD activity (inactivation) (3α-HSD [2]) | plasma t1/2 life [3] [s] |
| --- | --- | --- | --- | --- | --- | --- |
| 1.1 |  |  |  | Cc1ccc(Cl)c(Nc2ccccc2C(=O)O)c1Cl [Meclofenamate (II), meclofenamic acid, reference compound] |  |  |
| 0.835 |  |  |  | COc1ccc2c(c1)c(CC(=O)O)c(C)n2C(=O)c1ccc(Cl)cc1 [Indomethacin (I), indomethacin, reference compound] |  |  |
| 2.5 | 12.1 | cannot be returned by extensive dialysis | 161 | O=C(CBr)Nc1ccc(Nc2ccccc2C(=O)O)cc1 [Compound (VII), N-(4-bromoacetamidophenyl) anthranilic acid] | time and concentration dependent loss of 3α-HSD activity |  |
| 29 |  |  |  | Cc1ccc(C(=O)c2ccc(CC(=O)O)n2C)cc1 [Tolmetin (IV), tolmetin, reference compound] |  |  |
|  |  |  |  | CC(=O)Oc1ccccc1C(=O)O [aspirin, acetyl salicylate] |  | 900 |
| 1.5 | 7.1 | cannot be returned by extensive dialysis | 155 | O=C(CBr)Nc1cccc(Nc2ccccc2C(=O)O)c1 [Compound (VIII), N-(3-bromoacetamidophenyl) anthranilic acid] | time and concentration dependent loss of 3α-HSD activity |  |
| 15 | 40.2 | cannot be returned by extensive dialysis | 233 | COc1ccc2c(c1)c(CC(=O)O)c(C)n2Cc1ccc(NC(=O)CBr)cc1 [Compound (VI), 1-(4-bromoacetamidobenzyl)-5-methoxy-2-methylindole-3-aceticacid] | time and concentration dependent loss of 3α-HSD activity |  |
